The text below walks through data of ChEMBL document CHEMBL4419168, “Substituted n-([1,1''-biphenyl]-3-yl)-[1,1''-biphenyl]-3-carboxamide analogs as inhibitors for beta-catenin/b-cell lymphoma 9 interactions” (2018).

The target in assay [1] is T1, beta-catenin-B-cell lymphoma 9 protein complex (Homo sapiens, UniProt P35222).
T1 sequence (P35222 whole entry): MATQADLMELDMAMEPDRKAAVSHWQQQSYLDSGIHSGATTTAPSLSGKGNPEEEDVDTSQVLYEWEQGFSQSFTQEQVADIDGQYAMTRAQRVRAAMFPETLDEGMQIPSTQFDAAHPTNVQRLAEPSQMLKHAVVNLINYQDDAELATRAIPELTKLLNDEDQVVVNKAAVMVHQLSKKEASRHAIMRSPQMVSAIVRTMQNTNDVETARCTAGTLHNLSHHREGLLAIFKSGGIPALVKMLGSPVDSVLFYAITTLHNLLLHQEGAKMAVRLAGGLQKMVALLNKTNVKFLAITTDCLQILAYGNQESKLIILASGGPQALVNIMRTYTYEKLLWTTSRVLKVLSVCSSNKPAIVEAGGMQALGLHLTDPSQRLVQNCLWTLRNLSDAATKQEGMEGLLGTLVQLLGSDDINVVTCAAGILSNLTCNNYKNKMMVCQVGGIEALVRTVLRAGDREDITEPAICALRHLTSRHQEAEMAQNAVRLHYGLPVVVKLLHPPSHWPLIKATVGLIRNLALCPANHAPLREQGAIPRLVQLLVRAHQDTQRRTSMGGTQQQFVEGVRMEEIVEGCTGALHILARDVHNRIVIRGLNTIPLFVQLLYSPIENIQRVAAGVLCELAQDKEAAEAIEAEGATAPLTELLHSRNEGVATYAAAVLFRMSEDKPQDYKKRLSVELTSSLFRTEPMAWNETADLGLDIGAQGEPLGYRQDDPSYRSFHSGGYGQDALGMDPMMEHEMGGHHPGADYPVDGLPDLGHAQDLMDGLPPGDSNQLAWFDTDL
T1 sequence (O00512 whole entry): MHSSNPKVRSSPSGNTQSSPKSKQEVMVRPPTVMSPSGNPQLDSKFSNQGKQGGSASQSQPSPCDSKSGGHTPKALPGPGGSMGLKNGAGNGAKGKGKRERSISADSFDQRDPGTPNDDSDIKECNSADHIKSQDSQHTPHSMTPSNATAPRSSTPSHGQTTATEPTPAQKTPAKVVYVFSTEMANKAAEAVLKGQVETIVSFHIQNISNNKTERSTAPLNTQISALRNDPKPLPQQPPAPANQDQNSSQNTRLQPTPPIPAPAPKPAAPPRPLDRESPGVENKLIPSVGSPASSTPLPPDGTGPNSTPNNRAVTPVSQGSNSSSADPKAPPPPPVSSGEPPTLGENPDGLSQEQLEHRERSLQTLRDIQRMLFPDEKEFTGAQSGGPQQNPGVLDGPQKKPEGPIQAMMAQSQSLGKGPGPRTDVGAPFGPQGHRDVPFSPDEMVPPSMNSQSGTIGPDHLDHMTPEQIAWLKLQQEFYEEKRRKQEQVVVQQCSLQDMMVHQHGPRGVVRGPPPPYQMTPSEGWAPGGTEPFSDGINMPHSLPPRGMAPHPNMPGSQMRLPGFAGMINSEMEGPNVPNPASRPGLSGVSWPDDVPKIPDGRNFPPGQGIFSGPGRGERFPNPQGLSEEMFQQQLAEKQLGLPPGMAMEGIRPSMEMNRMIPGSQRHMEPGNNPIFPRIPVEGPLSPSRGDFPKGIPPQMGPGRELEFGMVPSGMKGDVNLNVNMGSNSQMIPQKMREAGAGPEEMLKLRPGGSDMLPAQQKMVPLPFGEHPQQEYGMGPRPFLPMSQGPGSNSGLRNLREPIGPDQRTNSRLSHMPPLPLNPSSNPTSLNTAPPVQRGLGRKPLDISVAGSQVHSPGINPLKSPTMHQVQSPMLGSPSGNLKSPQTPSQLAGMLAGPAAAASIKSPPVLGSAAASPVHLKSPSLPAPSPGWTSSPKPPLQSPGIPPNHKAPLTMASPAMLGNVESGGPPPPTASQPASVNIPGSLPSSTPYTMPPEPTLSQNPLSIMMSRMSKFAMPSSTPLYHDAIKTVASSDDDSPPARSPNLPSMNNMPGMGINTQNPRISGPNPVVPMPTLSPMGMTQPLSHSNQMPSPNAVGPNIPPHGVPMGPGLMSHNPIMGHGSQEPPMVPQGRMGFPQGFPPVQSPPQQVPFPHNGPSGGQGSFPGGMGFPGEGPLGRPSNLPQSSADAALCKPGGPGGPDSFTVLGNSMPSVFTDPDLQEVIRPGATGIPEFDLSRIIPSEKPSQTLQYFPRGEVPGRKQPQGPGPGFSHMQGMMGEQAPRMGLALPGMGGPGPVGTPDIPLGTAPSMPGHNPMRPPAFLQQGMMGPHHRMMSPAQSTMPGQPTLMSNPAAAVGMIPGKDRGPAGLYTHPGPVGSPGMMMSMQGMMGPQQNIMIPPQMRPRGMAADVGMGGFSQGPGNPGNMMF
Kind of assay: Inhibition of C-terminal 6x-histidine tagged beta-catenin (138 to 686 residues) (unknown origin) expressed in Escherichia coli BL21 DE3 /human BCL9 (350 to 375 residues) protein-protein interactions incubated for 1 hr by Alpha-screen assay. (In general: In Alpha technology, singlet oxygen from a donor bead excites a nearby acceptor bead.)

For assay [2], the species on record is Homo sapiens. Description: Selectivity index, ratio of Ki for inhibition of C-terminal 6x-histidine tagged beta-catenin (138 to 686 residues) (unknown origin) expressed in Escherichia coli BL21 DE3/N-terminally biotinylated human E-cadherin (824 to 877 residues) protein-protein interactions by Alpha-screen assay to Ki for ….
Assay [3] concerns SW480. Description: Cytotoxicity in human SW480 cells assessed as reduction in cell viability incubated for 72 hrs by MTS assay. Format: functional, cell-based. The settings on record: for IC50: SW480, 72 h. (Formazan colour is commonly taken as a measure of viable cells.)
The subject of assay [4] is A549. Description: Cytotoxicity in human A549 cells assessed as reduction in cell viability incubated for 72 hrs by MTS assay. Type of assay: functional, cell-based. The settings on record: A549, 72 h.
In assay [5] the test system is MCF-10A. Description: Cytotoxicity in human MCF10A cells assessed as reduction in cell viability incubated for 72 hrs by MTS assay. Format: cell-based.
In assay [6] the test system is MDA-MB-231. Description: Cytotoxicity in human MDA-MB-231 cells assessed as reduction in cell viability incubated for 72 hrs by MTS assay. Type of assay: functional, cell-based. To be noted: for IC50: MDA-MB-231, 72 h.
Assay [7] relates to HCT-116. Kind of assay: Cytotoxicity in human HCT116 cells assessed as reduction in cell viability incubated for 72 hrs by MTS assay. Type of assay: functional, cell-based. To be noted: for IC50: HCT-116, 72 h.
Assay [8] has as its system HT-29. Description: Cytotoxicity in human HT-29 cells assessed as reduction in cell viability incubated for 72 hrs by MTS assay. Type of assay: functional, cell-based. The settings on record: for IC50: HT-29, 72 h.
For assay [9], the target named is beta-catenin-B-cell lymphoma 9 protein complex (Homo sapiens, UniProt P35222, D145A). Kind of assay: Inhibition of inhibited beta-catenin D145A mutant (unknown origin) expressed in Escherichia coli BL21 DE3 /human BCL9 (350 to 375 residues) protein-protein interactions by Alpha-screen assay.
Assay [10] concerns SW480. Kind of assay: Inhibition of anchorage-independent growth in human SW480 cells incubated fro 18 days by crystal violet staining based assay. Type of assay: functional, cell-based.
In assay [11] the target is beta-catenin-B-cell lymphoma 9 protein complex (Homo sapiens, UniProt P35222, D145A/E155A). Kind of assay: Inhibition of inhibited beta-catenin D145A/E155A mutant (unknown origin) expressed in Escherichia coli BL21 DE3 /human BCL9 (350 to 375 residues) protein-protein interactions by Alpha-screen assay.

For orientation: Ki means the dissociation constant of the complex between target and ligand, obtained from inhibition or displacement. High values mean weaker binding, low ones tighter binding. Usually IC50 stands for the concentration that inhibits the measured activity by half.

`NCCOc1ccc(NC(=O)c2ccc(OCCN)c(-c3ccc(F)cc3)c2)cc1-c1ccc(F)cc1` yielded an inhibition constant Ki in assay [1] of 11.6 µM. This counts as double-digit micromolar.
Turning to `O=C(Nc1ccc(O[C@H]2CCNC2)c(-c2ccc(F)cc2)c1)c1ccc(O[C@H]2CCNC2)c(-c2ccc(F)cc2)c1`, the Ratio Ki in [2] turned out to be 35. Moreover, the IC50 is 9.86 µM in assay [3]; 18.8 µM in assay [4]; 19.9 µM in [5]; 7.05 to 8.35 µM in [6]; 8.23 µM in [7]. The compound also gave an inhibition constant (Ki) in assay [1] of 6.65 µM.
With `O=C(NCCCC(=O)N1CCNCC1)c1ccc(-c2cc(C(=O)Nc3ccc(O[C@H]4CCNC4)c(-c4ccc(F)cc4)c3)ccc2O[C@H]2CCNC2)cc1`, in assay [2], the Ratio Ki came to 345.
For `Cc1cc(C(=O)Nc2ccc(O[C@H]3CCNC3)c(-c3ccc(F)cc3)c2)ccc1O[C@H]1CCNC1`, the 50% inhibitory concentration (IC50) in assay [6] amounted to 9.03 µM.
Turning to `CC(C)c1cc2c(c(O)c1O)[C@@]1(C(=O)O)CCCC(C)(C)[C@@H]1CC2` [CARNOSIC ACID], the half-inhibitory concentration (IC50) in assay [8] worked out at 20.2 µM; in assay [3] it was 10.5 µM; in assay [7], 8.67 µM. Further, the Ratio Ki in [2] was 73.
For the compound `NCCOc1ccc(NC(=O)c2ccc(OCCN)c(-c3ccc(F)c(F)c3)c2)cc1-c1ccc(F)cc1`, the Ratio Ki in assay [2] was determined as 38.
In the case of `O=C(Nc1ccc(O[C@H]2CCNC2)c(-c2ccc(F)cc2)c1)c1ccc(O[C@H]2CCNC2)c(-c2ccc(F)c(F)c2)c1`, the inhibition entry in assay [8], in [3], in assay [10], in assay [6] and in assay [7] was “Dose-dependent effect” in each case. Besides, the IC50 in assay [8] was 2.97 µM; in assay [3], 3.5 µM; in assay [4], 8.79 µM; in assay [5], 9.07 µM; in assay [6], 2.32 to 2.47 µM; in [7] it was 3.07 µM. Moreover, the results for the inhibitory constant (Ki) in assay [9] and in assay [11] were 13.4 µM and 96.6 µM, respectively.
Regarding `O=C(Nc1ccc(O[C@H]2CCNC2)c(-c2ccc(F)cc2)c1)c1ccc(O[C@H]2CCNC2)c(-c2ccc3ccccc3c2)c1`, in assay [6], the IC50 was 220 µM.
`O=C(Nc1ccc(OC2CNC2)c(-c2ccc(F)cc2)c1)c1ccc(OC2CNC2)c(-c2ccc(F)c(F)c2)c1`: the Ratio Ki in assay [2] was found to be 16.
Regarding `O=C(Nc1ccc(O[C@H]2CCNC2)c(-c2ccc(F)c(F)c2)c1)c1ccc(O[C@H]2CCNC2)c(-c2ccc(F)c(F)c2)c1`, in assay [2], the Ratio Ki was determined as 30. The compound further came in with an inhibitory constant (Ki) in assay [1] of 8.71 µM.
